Results taken from paper PMC10318456, “Selective inhibitors of the PSEN1–gamma-secretase complex” (The Journal of Biological Chemistry, 2023).
Values joined by “and” are separate entries in the source; they are usually repeats but may differ in a detail not shown here. Identical values can stand only once.

Assays:
Format in all cases: cell-based
[1] = target: T1, PSEN1 M233A–APH1A γ-secretase complex (Homo sapiens, UniProt P49768, M233A); experiment: Aβ40 secretion, MEF cell pool restored with PSEN1 M233A–APH1A; conditions: decimal comma; for IC50: PSEN1 M233A (TM5)–APH1A cell pool, N = 3 to 4, mean (95% CI)
T1 construct: expressed in transfected cells; host or cells: Psen1/2 double KO/Aph1ABC triple KO MEFs, pools without clonal selection
Description: (§1) We turned to experimental site–directed mutagenesis and selected a series of amino acids (Fig. 3) in the entrance channel for mutation to alanine. […] More importantly, they were all enzymatically active as shown by the secretion of Aβ40 in the supernatants of the cell cultures (Fig. 3B).
(§2) Conditional Psen1/2 double KO mice were crossed with conditional Aph1ABC triple KO mice ([29], [52], [58], [59]). At embryonic day 7.5, embryos were dissected and dissociated, and cells were plated in the presence of Dulbecco’s modified Eagle’s medium (DMEM)/F12 50% fetal calf serum (FCS) (Invitrogen). Primary MEFs were immortalized by transduction with LargeT antigen. Psen1/2 double KO/Aph1ABC triple KO MEFs were generated by transduction with a Cre-GFP–expressing adenoviral vector, and GFP-positive MEFs were sorted by fluorescence-activated cell sorting analysis. Psen1/2 Aph1ABC-deficient MEFs were maintained in DMEM/f12 10% FCS. To rescue γ-secretase expression, Psen1/2 double KO/Aph1ABC triple KO MEFs were transduced using Murine Stem Cell Virus retroviral vector system (pMSCV) viral vectors (Clontech) containing the human coding sequences of the different PSEN and APH1 homologs and the zeocin selection marker. An Internal Ribosome Entry Site sequence was cloned between the coding sequences for PSEN and APH1 to ensure co-expression of both proteins. Stable transfected cell lines were selected using 500-μg/ml zeocin (Invitrogen). Four different combinations were made: PSEN1 and APH1AL, PSEN1 and APH1B, PSEN2 and APH1AL, and PSEN2 and APH1B. These cell lines were transduced with pMSCV viral vectors (Clontech) expressing APP-C99-GFP-puromycin. […]
(§3) The number of plated cells and incubation times were determined in respect to linearity of Aβ peptide secretion, the dynamic range of Aβ peptide quantification in the medium, and sensitivity to dimethylsulfoxide (DMSO). […] The cell viability was assessed using the CellTiter-Glo Luminescent assay (Promega) that measures ATP production. […] We however measured five compounds at the Leuven site and noticed that absolute IC50 values were different (Fig. S2). […]

[2] = target: T2, PSEN1 I168A–APH1A γ-secretase complex (Homo sapiens, UniProt P49768, I168A); experiment: Aβ40 secretion, MEF cell pool restored with PSEN1 I168A–APH1A; conditions: decimal comma; for IC50: PSEN1 I168A (TM3)–APH1A cell pool, N = 3 to 4, mean (95% CI)
T2 construct: expressed in transfected cells; host or cells: Psen1/2 double KO/Aph1ABC triple KO MEFs, pools without clonal selection
Description: as §1, §2, §3

[3] = target: T3, PSEN1 L173A–APH1A γ-secretase complex (Homo sapiens, UniProt P49768, L173A); experiment: Aβ40 secretion, MEF cell pool restored with PSEN1 L173A–APH1A; conditions: decimal comma; for IC50: PSEN1 L173A (TM3)–APH1A cell pool, N = 3 to 4, mean (95% CI)
T3 construct: expressed in transfected cells; host or cells: Psen1/2 double KO/Aph1ABC triple KO MEFs, pools without clonal selection
Description: as §1, §2, §3

[4] = target: T4, PSEN1 I387A–APH1A γ-secretase complex (Homo sapiens, UniProt P49768, I387A); experiment: Aβ40 secretion, MEF cell pool restored with PSEN1 I387A–APH1A; conditions: decimal comma; for IC50: PSEN1 I387A (TM7)–APH1A cell pool, N = 3 to 4, mean (95% CI)
T4 construct: expressed in transfected cells; host or cells: Psen1/2 double KO/Aph1ABC triple KO MEFs, pools without clonal selection
Description: as §1, §2, §3

[5] = target: T5, PSEN1 L150A–APH1A γ-secretase complex (Homo sapiens, UniProt P49768, L150A); experiment: Aβ40 secretion, MEF cell pool restored with PSEN1 L150A–APH1A; conditions: decimal comma; for IC50: PSEN1 L150A (TM2)–APH1A cell pool, N = 3 to 4, mean (95% CI)
T5 construct: expressed in transfected cells; host or cells: Psen1/2 double KO/Aph1ABC triple KO MEFs, pools without clonal selection
Description: as §1, §2, §3

[6] = target: T6, PSEN1 WT–APH1A γ-secretase complex (Homo sapiens, UniProt P49768); experiment: Aβ40 secretion, MEF cell pool restored with PSEN1 WT–APH1A; conditions: decimal comma; for IC50 fold change to WT: PSEN1 WT–APH1A cell pool (reference); for IC50: PSEN1 WT–APH1A cell pool, N = 3 to 4, mean (95% CI)
T6 construct: expressed in transfected cells; host or cells: Psen1/2 double KO/Aph1ABC triple KO MEFs
Description: as §1
(§4) Conditional Psen1/2 double KO mice were crossed with conditional Aph1ABC triple KO mice ([29], [52], [58], [59]). At embryonic day 7.5, embryos were dissected and dissociated, and cells were plated in the presence of Dulbecco’s modified Eagle’s medium (DMEM)/F12 50% fetal calf serum (FCS) (Invitrogen). Primary MEFs were immortalized by transduction with LargeT antigen. Psen1/2 double KO/Aph1ABC triple KO MEFs were generated by transduction with a Cre-GFP–expressing adenoviral vector, and GFP-positive MEFs were sorted by fluorescence-activated cell sorting analysis. Psen1/2 Aph1ABC-deficient MEFs were maintained in DMEM/f12 10% FCS. To rescue γ-secretase expression, Psen1/2 double KO/Aph1ABC triple KO MEFs were transduced using Murine Stem Cell Virus retroviral vector system (pMSCV) viral vectors (Clontech) containing the human coding sequences of the different PSEN and APH1 homologs and the zeocin selection marker. An Internal Ribosome Entry Site sequence was cloned between the coding sequences for PSEN and APH1 to ensure co-expression of both proteins. Stable transfected cell lines were selected using 500-μg/ml zeocin (Invitrogen). Four different combinations were made: PSEN1 and APH1AL, PSEN1 and APH1B, PSEN2 and APH1AL, and PSEN2 and APH1B. These cell lines were transduced with pMSCV viral vectors (Clontech) expressing APP-C99-GFP-puromycin. After puromycin selection (5 μg/ml), GFP-positive cells were selected through FACS sorting. For the alanine mutagenesis experiment, pMSCV PSEN1-APH1A viral vectors were generated by using a long PCR-based QuikChange strategy (Stratagene). Stable cell lines without clonal selection were generated for each mutant as described above. All cell lines were regularly tested for the absence of mycoplasma and used for maximum 20 passages in culture.
The number of plated cells and incubation times were determined in respect to linearity of Aβ peptide secretion, the dynamic range of Aβ peptide quantification in the medium, and sensitivity to dimethylsulfoxide (DMSO). […] MEF cells were plated in DMEM F12 supplemented with 10% FCS at 10,000 cells per well in 96-well clear bottom plates in the late afternoon and cultured for 16 h at 37 °C, 5% CO2. In the morning of the second day, the medium was replaced with 60 μl of DMEM/F12 supplemented with 2% FCS, and GSI or DMSO (controls) were added. Compounds were tested in serial dilutions with concentrations ranging from […] to 0.1 nM with 3-fold changes. The final concentration of DMSO in all wells was 0.2%. Plates were put in the incubator again at 37 °C, 5% CO2. After 8 h, the culture media were collected, and 30 μl was used to measure Aβ40 peptides. The cell viability was assessed using the CellTiter-Glo Luminescent assay (Promega) that measures ATP production. All screens were performed at one site, and reported IC50 values throughout the manuscript are from this site (Beerse) unless otherwise indicated. We however measured five compounds at the Leuven site and noticed that absolute IC50 values were different (Fig. S2). The main goal of the current work is to explore the basis for inhibitor selectivity for different γ-secretases, and selectivity was consistent in the assays at the two sites (Fig. S2).
Standard 96-well SECTOR plates (MSD) were coated with 1.5 μg/ml anti-Aβ JRFcAβ40/28 capture antibody in a final volume of 50 μl of PBS 0.05% Tween 20. After overnight incubation at 4 °C, the plates were five times rinsed with PBS 0.05% Tween 20 and blocked with 150 μl per well of casein buffer (PBS with 1% casein, pH 7.4) for 4 h at room temperature. Standards (synthetic human Aβ 1–40) were diluted in culture media. […]

[7] = target: T7, PSEN1 I229A–APH1A γ-secretase complex (Homo sapiens, UniProt P49768, I229A); experiment: Aβ40 secretion, MEF cell pool restored with PSEN1 I229A–APH1A; conditions: decimal comma; for IC50: PSEN1 I229A (TM5)–APH1A cell pool, N = 3 to 4, mean (95% CI); for IC50 fold change to WT: PSEN1 I229A–APH1A cell pool
T7 construct: expressed in transfected cells; host or cells: Psen1/2 double KO/Aph1ABC triple KO MEFs, pools without clonal selection
Description: as §1, §4
as §3, with “(DMSO). […] MEF cells were plated in DMEM F12 supplemented with 10% FCS at 10,000 cells per well in 96-well clear bottom plates in the late afternoon and cultured for 16 h at 37 °C, 5% CO2.” for “(DMSO).”

[8] = target: T8, PSEN1 M146A–APH1A γ-secretase complex (Homo sapiens, UniProt P49768, M146A); experiment: Aβ40 secretion, MEF cell pool restored with PSEN1 M146A–APH1A; conditions: decimal comma; for IC50: PSEN1 M146A (TM2)–APH1A cell pool, N = 3 to 4, mean (95% CI); for IC50 fold change to WT: PSEN1 M146A–APH1A cell pool
T8 construct: expressed in transfected cells; host or cells: Psen1/2 double KO/Aph1ABC triple KO MEFs, pools without clonal selection
Description: as §1, §4
as §3, with “(DMSO). […] MEF cells were plated in DMEM F12 supplemented with 10% FCS at 10,000 cells per well in 96-well clear bottom plates in the late afternoon and cultured for 16 h at 37 °C, 5% CO2.” for “(DMSO).”

[9] = target: T9, PSEN1 S170A–APH1A γ-secretase complex (Homo sapiens, UniProt P49768, S170A); experiment: Aβ40 secretion, MEF cell pool restored with PSEN1 S170A–APH1A; conditions: decimal comma; for IC50: PSEN1 S170A (TM3)–APH1A cell pool, N = 3 to 4, mean (95% CI)
T9 construct: expressed in transfected cells; host or cells: Psen1/2 double KO/Aph1ABC triple KO MEFs, pools without clonal selection
Description: as §1, §2, §3

Structure (SMILES): C[C@H](NC(=O)Cc1cc(F)cc(F)c1)C(=O)N[C@H](C(=O)OC(C)(C)C)c1ccccc1 [DAPT]
- IC50 [1]: 0.449 µM
- IC50 fold change to WT ([1]; PSEN1 M233A–APH1A cell pool): 2,658 fold
- IC50 [2]: 0.043 µM
- IC50 [3]: 0.028 µM
- IC50 [4]: 0.882 µM
- IC50 fold change to WT ([4]; PSEN1 I387A–APH1A cell pool): 5,225 fold and > 3 fold
- IC50 [5]: 0.879 µM
- IC50 fold change to WT ([5]; PSEN1 L150A–APH1A cell pool): 5,207 fold and > 3 fold
- IC50 fold change to WT [6]: 1 fold
- IC50 [6]: 0.169 µM
- IC50 [7]: 0.334 µM
- IC50 fold change to WT [7]: 1,980 fold
- IC50 [8]: 0.234 µM
- IC50 fold change to WT [8]: 1,386 fold
- IC50 [9]: 0.139 µM
- IC50 fold change to WT ([9]; PSEN1 S170A–APH1A cell pool): 0,821 fold

Structure (SMILES): O=S(=O)(c1ccc(Cl)cc1)N1[C@H]2CC[C@@H]([C@H]1c1ccc(C(F)(F)F)cc1)[C@@H](O)C2 [(+)-9b]
- IC50 [1]: 0.462 µM
- IC50 [2]: 0.015 µM
- IC50 fold change to WT ([2]; PSEN1 I168A–APH1A cell pool): 0,511 fold
- IC50 [3]: 0.077 µM
- IC50 fold change to WT ([3]; PSEN1 L173A–APH1A cell pool): 2,658 fold
- IC50 [4]: 0.283 µM
- IC50 [5]: 1.09 µM
- IC50 fold change to WT [6]: 1 fold
- IC50 [6]: 0.029 µM
- IC50 [7]: 0.042 µM
- IC50 fold change to WT [7]: 1,440 fold
- IC50 [8]: 0.031 µM
- IC50 fold change to WT [8]: 1,076 fold
- IC50 [9]: 0.132 µM
